Measured values reported in ChEMBL document CHEMBL3046944, “NEW QUASSINOIDS FROM AILANTHUS EXCELSA” (Med Chem Res, 2004).
Activity calls are given as the source filed them. No cut-off for these calls is given here.

Assays:
Plasmodium falciparum [1] = experiment: Antimalarial activity against Plasmodium falciparum assessed as growth inhibition at 0.2 uM; type: functional, organism-based
Plasmodium falciparum [2] = experiment: Antimalarial activity against Plasmodium falciparum assessed as growth inhibition at 25 nM; type: functional, organism-based

SMILES	growth inhibition (GI) (Plasmodium falciparum [1])	growth inhibition (GI) (Plasmodium falciparum [2])
CCC(C)C(=O)O[C@H]1C(=O)O[C@@H]2C[C@H]3C(C)=C[C@H](O)[C@@H](O)[C@]3(C)[C@H]3[C@@]4(O)OC[C@]32[C@@H]1[C@@H](C)[C@H]4O (some centres not stated)	Active	
CCN(CC)CCCC(C)Nc1ccnc2cc(Cl)ccc12 (configuration not stated)		Active
